The text below walks through data of patent US10058550B2, “Methods of treating heart failure” (priority 2015, dated 2018).

Chain of human APJ receptor (P35414 whole entry): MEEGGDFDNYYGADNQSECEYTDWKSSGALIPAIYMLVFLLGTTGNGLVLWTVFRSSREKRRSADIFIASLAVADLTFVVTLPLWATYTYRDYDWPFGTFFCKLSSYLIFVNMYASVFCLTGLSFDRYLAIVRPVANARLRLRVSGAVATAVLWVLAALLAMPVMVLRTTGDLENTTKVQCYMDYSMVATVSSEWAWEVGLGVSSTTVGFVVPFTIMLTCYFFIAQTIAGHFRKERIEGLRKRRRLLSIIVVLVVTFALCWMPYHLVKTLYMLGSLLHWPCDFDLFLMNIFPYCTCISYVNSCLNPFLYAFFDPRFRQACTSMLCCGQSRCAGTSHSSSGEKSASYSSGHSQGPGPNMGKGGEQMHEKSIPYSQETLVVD

This assay concerns the target human APJ receptor (Homo sapiens (Human), UniProt P35414). Description: biochemical. The format is biochemical. Particulars: read-out: Activity hAPJ SPA EC50 IP. In a few lines:
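Membranes from CHO cells stably expressing cloned human APJ were incubated with WGA SPA beads in 20 mM HEPES pH 7.5, 5 mM MgCl2, 0.1% BSA, 200 mM NaCl and 3 μM GDP. Reaction started with 0.2 nM [35S]GTPγS ± ligands, 90 min at RT. EC50 obtained by non-linear regression as mean of independent experiments.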
For orientation: EC50 means the concentration giving half of the maximal effect. In the case of `CCc1cccc(-c2nnc(NS(=O)(=O)[C@@H](C)[C@H](O)c3ncc(C)cn3)n2-c2c(OC)cccc2OC)n1` [Example 175.0, (1R,2S)-N-(4-(2,6-dimethoxyphenyl)-5-(6-ethylpyridin-2-yl)-4H-1,2,4-triazol-3-yl)-1-hydroxy-1-(5-methylpyrimidin-2-yl)propane-2-sulfonamide], the concentration giving a half-maximal response (EC50) amounted to 0.39 nM. In the case of `CCc1cccc(-c2nnc(NS(=O)(=O)[C@@H](C)[C@H](C)c3ncc(C)cn3)n2-c2c(OC)cccc2OC)n1` [Example 176.0, (2S,3R)-N-(4-(2,6-dimethoxyphenyl)-5-(6-ethylpyridin-2-yl)-4H-1,2,4-triazol-3-yl)-3-(5-methylpyrimidin-2-yl)butane-2-sulfonamide], the EC50 came out at 0.15 nM. The figure for `COc1cc(C)cc(-c2nnc(NS(=O)(=O)[C@@H](C)[C@H](C)c3ncc(F)cn3)n2-c2c(OC)cccc2OC)n1` [Example 177.0, (2S,3R)-N-(4-(2,6-dimethoxyphenyl)-5-(6-methoxy-4-methylpyridin-2-yl)-4H-1,2,4-triazol-3-yl)-3-(5-fluoropyrimidin-2-yl)butane-2-sulfonamide] is 0.12 nM; for `COc1cc(C)cc(-c2nnc(NS(=O)(=O)[C@@H](C)[C@H](C)c3ncc(C)cn3)n2-c2c(OC)cccc2OC)n1` [Example 178.0, (2S,3R)-N-(4-(2,6-dimethoxyphenyl)-5-(6-methoxy-4-methylpyridin-2-yl)-4H-1,2,4-triazol-3-yl)-3-(5-methylpyrimidin-2-yl)butane-2-sulfonamide] it is 0.12 nM. Consider `COc1cc(C)cc(-c2nnc(NS(=O)(=O)[C@@H](C)[C@H](OC)c3ncc(C)cn3)n2-c2c(OC)cccc2OC)n1` [Example 179.0, (1R,2S)-N-(4-(2,6-dimethoxyphenyl)-5-(6-methoxy-4-methylpyridin-2-yl)-4H-1,2,4-triazol-3-yl)-1-methoxy-1-(5-methylpyrimidin-2-yl)propane-2-sulfonamide], for which the EC50 came to 4.8 nM. With `CCOc1cccc(-c2nnc(NS(=O)(=O)[C@@H](C)[C@H](C)c3ncc(C)cn3)n2-c2c(OC)cccc2OC)n1` [Example 180.0, (2S,3R)-N-(4-(2,6-dimethoxyphenyl)-5-(6-ethoxypyridin-2-yl)-4H-1,2,4-triazol-3-yl)-3-(5-methylpyrimidin-2-yl)butane-2-sulfonamide], the EC50 turned out to be 0.068 nM.

Take `COc1cccc(OC)c1-n1c(NS(=O)(=O)CCc2ccc(F)cc2C#N)nnc1-c1cncc(Cl)c1` [Example 181.0, N-(5-(5-chloro-3-pyridinyl)-4-(2,6-dimethoxyphenyl)-4H-1,2,4-triazol-3-yl)-2-(2-cyano-4-fluorophenyl)ethanesulfonamide]: the EC50 is 12 nM. As for `COc1cccc(OC)c1-n1c(NS(=O)(=O)[C@@H](C)[C@H](C)c2ncc(F)cn2)nnc1-c1cccc(OCC(F)(F)F)n1` [Example 185.0, (2S,3R)-N-(4-(2,6-dimethoxyphenyl)-5-(6-(2,2,2-trifluoroethoxy)pyridin-2-yl)-4H-1,2,4-triazol-3-yl)-3-(5-fluoropyrimidin-2-yl)butane-2-sulfonamide], the EC50 stood at 0.12 nM. Take `COc1cccc(OC)c1-n1c(NS(=O)(=O)[C@@H](C)[C@H](C)c2ncc(F)cn2)nnc1-c1cccc(OCCO)n1` [Example 186.0, (2S,3R)-N-(4-(2,6-dimethoxyphenyl)-5-(6-(2-hydroxyethoxy)pyridin-2-yl)-4H-1,2,4-triazol-3-yl)-3-(5-fluoropyrimidin-2-yl)butane-2-sulfonamide]: the concentration giving a half-maximal response (EC50) was found to be 0.12 nM. Turning to `COc1cccc(OC)c1-n1c(NS(=O)(=O)[C@@H](C)[C@H](OC)c2ncc(C)cn2)nnc1-c1cccc(OCC(F)(F)F)n1` [Example 187.0, (1R,2S)-N-(4-(2,6-dimethoxyphenyl)-5-(6-(2,2,2-trifluoroethoxy)pyridin-2-yl)-4H-1,2,4-triazol-3-yl)-1-methoxy-1-(5-methylpyrimidin-2-yl)propane-2-sulfonamide], the EC50 amounted to 0.14 nM. On to `COc1cccc(OC)c1-n1c(NS(=O)(=O)[C@@H](C)[C@H](OC)c2ncc(C)cn2)nnc1-c1cccc(OCCO)n1` [Example 188.0, (1R,2S)-N-(4-(2,6-dimethoxyphenyl)-5-(6-(2-hydroxyethoxy)pyridin-2-yl)-4H-1,2,4-triazol-3-yl)-1-methoxy-1-(5-methylpyrimidin-2-yl)propane-2-sulfonamide], for which the EC50 came out at 0.96 nM. As to `COc1cccc(OC)c1-n1c(NS(=O)(=O)[C@@H](C)[C@H](C)c2ncc(F)cn2)nnc1-c1cccc(OCC(C)(C)O)n1` [Example 192.0, (2S,3R)-N-(4-(2,6-dimethoxyphenyl)-5-(6-(2-hydroxy-2-methylpropoxy)pyridin-2-yl)-4H-1,2,4-triazol-3-yl)-3-(5-fluoropyrimidin-2-yl)butane-2-sulfonamide], the EC50 came to 260 nM. On to `COc1cccc(OC)c1-n1c(NS(=O)(=O)[C@@H](C)[C@H](OC)c2ncc(C)cn2)nnc1-c1cccc(OCC(C)(C)O)n1` [Example 193.0, (1R,2S)-N-(4-(2,6-dimethoxyphenyl)-5-(6-(2-hydroxy-2-methylpropoxy)pyridin-2-yl)-4H-1,2,4-triazol-3-yl)-1-methoxy-1-(5-methylpyrimidin-2-yl)propane-2-sulfonamide], for which the EC50 was 61 nM. In the case of `COc1cccc(OC)c1-n1c(NS(=O)(=O)[C@@H](C)[C@H](C)c2ncc(F)cn2)nnc1-c1cccc(OCC(O)(C(F)(F)F)C(F)(F)F)n1` [Example 194.0, (2S,3R)-N-(4-(2,6-dimethoxyphenyl)-5-(6-(3,3,3-trifluoro-2-hydroxy-2-(trifluoromethyl)propoxy)pyridin-2-yl)-4H-1,2,4-triazol-3-yl)-3-(5-fluoropyrimidin-2-yl)butane-2-sulfonamide], the EC50 was determined as 36 nM. Take `CNc1cccc(-c2nnc(NS(=O)(=O)[C@@H](C)[C@H](OC)c3ncc(C)cn3)n2-c2c(OC)cccc2OC)n1` [Example 195.0, (1R,2S)-N-(4-(2,6-dimethoxyphenyl)-5-(6-(methylamino)pyridin-2-yl)-4H-1,2,4-triazol-3-yl)-1-methoxy-1-(5-methylpyrimidin-2-yl)propane-2-sulfonamide]: the EC50 is 0.35 nM. On to `COCCOc1cccc(-c2nnc(NS(=O)(=O)[C@@H](C)[C@H](OC)c3ncc(C)cn3)n2-c2c(OC)cccc2OC)n1` [Example 196.0, (1R,2S)-N-(4-(2,6-dimethoxyphenyl)-5-(6-(2-methoxyethoxy)pyridin-2-yl)-4H-1,2,4-triazol-3-yl)-1-methoxy-1-(5-methylpyrimidin-2-yl)propane-2-sulfonamide], for which the concentration giving a half-maximal response (EC50) was found to be 3.4 nM. Consider `COc1cccc(OC)c1-n1c(NS(=O)(=O)[C@@H](C)[C@H](OC)c2ncc(C)cn2)nnc1-c1cccc(N(C)C)n1` [Example 197.0, (1R,2S)-N-(4-(2,6-dimethoxyphenyl)-5-(6-(dimethylamino)pyridin-2-yl)-4H-1,2,4-triazol-3-yl)-1-methoxy-1-(5-methylpyrimidin-2-yl)propane-2-sulfonamide], for which the EC50 worked out at 0.21 nM. As for `COc1cccc(OC)c1-n1c(NS(=O)(=O)[C@@H](C)[C@H](C)c2cnc(C)cn2)nnc1-c1cccnc1` [Example 198.0, (2S,3R)-N-(4-(2,6-dimethoxyphenyl)-5-(pyridin-3-yl)-4H-1,2,4-triazol-3-yl)-3-(5-methylpyrazin-2-yl)butane-2-sulfonamide], the EC50 was found to be 1.1 nM.
